Key:
HCC15 cells = test: MTS cell viability, HCC15; format: cell-based, human; conditions: HCC15 NSCLC, MTS, 4 days
Protocol: (§1) All human cancer cell lines were maintained in RPMI media supplemented with 5% (lung and breast cancer cells) or 10% (melanoma cells) fetal bovine serum. […] Human mammary epithelial cells immortalised with telomerase were maintained in complete MEGM media from Cambrex (East Rutherford, NJ, USA).
(§2) Absorbance at 490 and 650 nm (reference wavelength) was measured by a Spectra Max (Molecular Devices, Sunnyvale, CA, USA) or a FlouroStar Omega (BMG Biosciences, Ortenberg, Germany) plate reader. Data were normalised to the untreated controls (100% viability). Each cell line was tested in 1–5 independent assays, each containing 4–8 replicates. IC50 values were calculated using DIVISA, a high-throughput software, developed in-house (manuscript in preparation), for storing and analysing drug sensitivity assays. Dose–response curves were plotted using a non-linear regression model and IC50s were determined from the fitted curves.

H2009 cells = test: MTS cell viability, H2009; format: cell-based, human; conditions: H2009 NSCLC, 4 days
Protocol: as §1, §2

H358 cells = test: MTS cell viability, H358; format: cell-based, human; conditions: H358 NSCLC, 4 days
Protocol: as §1, §2

H1395 cells = test: MTS cell viability, H1395; format: cell-based, human; conditions: H1395 NSCLC, 4 days
Protocol: as §1, §2

H820 cells = test: MTS cell viability, H820; format: cell-based, human; conditions: H820 NSCLC, 4 days
Protocol: as §1, §2

H2073 cells = test: MTS cell viability, H2073; format: cell-based, human; conditions: H2073 NSCLC, MTS, 4 days
Protocol: as §1, §2

H1993 cells = test: MTS cell viability, H1993; format: cell-based, human; conditions: H1993 NSCLC, MTS, 4 days
Protocol: as §1, §2

H1355 cells = test: MTS cell viability, H1355; format: cell-based, human; conditions: H1355 NSCLC, 4 days
Protocol: as §1, §2

HCC366 cells = test: MTS cell viability, HCC366; format: cell-based, human; conditions: HCC366 NSCLC, 4 days
Protocol: as §1, §2

H1437 cells = test: MTS cell viability, H1437; format: cell-based, human; conditions: H1437 NSCLC, MTS, 4 days
Protocol: as §1, §2

H2086 cells = test: MTS cell viability, H2086; format: cell-based, human; conditions: H2086 NSCLC, 4 days
Protocol: as §1, §2

H2085 cells = test: MTS cell viability, H2085; format: cell-based, human; conditions: H2085 NSCLC, 4 days
Protocol: as §1, §2

HCC1500 cells = test: MTS cell viability, HCC1500; format: cell-based, human; conditions: HCC1500 breast cancer line, 4 days
Protocol: as §1, §2

HCC1806 cells = test: MTS cell viability, HCC1806; format: cell-based, human; conditions: HCC1806 breast cancer line, 4 days
Protocol: as §1, §2

MCF-7 cells = test: MTS cell viability, MCF-7; format: cell-based, human; conditions: 4 days; for IC50: MCF-7 breast cancer line
Protocol: as §1, §2

HCC1954 cells = test: MTS cell viability, HCC1954; format: cell-based, human; conditions: HCC1954 breast cancer line, 4 days
Protocol: as §1, §2

MCF-10 cells = test: MTS cell viability, MCF-10; format: cell-based, human; conditions: MCF-10, MTS, 4 days
Protocol: as §1, §2

[1] = test system: 1585T immortalised normal human mammary epithelial cells; test: MTS cell viability, 1585T; format: cell-based; conditions: 4 days
Protocol: as §1, §2

SKMEL5 melanoma cells = test: MTS cell viability, SKMEL5; format: cell-based, human; conditions: 4 days
Protocol: as §1, §2

M14 melanoma cells = test: MTS cell viability, M14; format: cell-based, human; conditions: 4 days
Protocol: as §1, §2

MALME3M melanoma cells = test: MTS cell viability, MALME3M; format: cell-based, human; conditions: 4 days
Protocol: as §1, §2

SKMEL2 melanoma cells = test: MTS cell viability, SKMEL2; format: cell-based, human; conditions: SKMEL2 melanoma, MTS, 4 days
Protocol: as §1, §2

SKMEL28 melanoma cells = test: MTS cell viability, SKMEL28; format: cell-based, human; conditions: 4 days
Protocol: as §1, §2

[2] = test system: MEL270 uveal melanoma cells; test: MTS cell viability, MEL270; format: cell-based, human; conditions: 4 days
Protocol: as §1, §2

[3] = test system: OCM1 uveal melanoma cells; test: MTS cell viability, OCM1; format: cell-based, human; conditions: 4 days
Protocol: as §1, §2

[4] = test system: OCM3 uveal melanoma cells; test: MTS cell viability, OCM3; format: cell-based, human; conditions: 4 days
Protocol: as §1, §2

[5] = test system: OMM2.3 uveal melanoma cells; test: MTS cell viability, OMM2.3; format: cell-based, human; conditions: 4 days
Protocol: as §1, §2

[6] = test system: HBEC15KT human bronchial epithelial cells; test: MTS cell viability, HBEC15KT; format: cell-based; conditions: 4 days
Protocol: as §1, §2

[7] = test system: HBEC34KT human bronchial epithelial cells; test: MTS cell viability, HBEC34KT; format: cell-based; conditions: HBEC34KT (normal, matched to HCC4018), 4 days
Protocol: as §1, §2

[8] = test system: HCC4018 lung cancer cells; test: MTS cell viability, HCC4018; format: cell-based, human; conditions: HCC4018 (lung cancer, matched to HBEC34KT), MTS, 4 days
Protocol: as §1, §2

Melanocytes = test: MTS cell viability, primary melanocytes; format: cell-based, human; conditions: 4 days
Protocol: as §1, §2

[9] = test system: total HDAC activity, C127 cell extracts; test: Total HDAC activity in cell extracts treated in vitro; format: biochemical
Description: HDAC2 was purified as described below.

[10] = test system: histone 3 acetylation in H358 cells; test: Western blot, acetylated histone 3; format: cell-based, human; conditions: 24 h
Protocol: Exponentially growing cells were treated with the appropriate compounds and harvested 4 or 24 h later in a standard nuclear lysis buffer and whole cell lysates were quantified. Equal amounts of total protein were loaded onto 4–12% Bis-Tris SDS gels and subjected to electrophoresis. After transferring onto nitrocellulose membranes, blots were probed for acetylated tubulin (Sigma, St Louis, MO, USA; T6793), acetylated histone 3 (Millipore/Upstate #06-599), acetylated histone 4 (Millipore/Upstate #07-329) or trimethylated histone 3 at lysine 9 (Millipore/Upstate #07-523). Actin (Santa Cruz, Santa Cruz, CA, USA; #1616) and HDAC1 (Affinity Bioreagents, Rockford, IL, USA; #PA1-860) were probed as loading controls. Quantification of bands in films was performed using two independent methods, which yielded similar results, Image J (NIH public software) and Quantity one (Bio-Rad, Hercules, CA, USA). The average of the two methods±s.e.m. is shown as specified in figure legends. For the MDR western analysis, a primary antibody against P-glycoprotein from Calbiochem (Darmstadt, Germany) was used according to the manufacturer's recommendations and HSP90 (Santa Cruz) was used as a loading control.

SMILES | IC50 (HCC15 cells) [nM] | IC50 (H2009 cells) [nM] | IC50 (H358 cells) [nM] | IC50 (H1395 cells) [nM] | IC50 (H820 cells) [nM] | IC50 (H2073 cells) [nM] | IC50 (H1993 cells) [nM] | IC50 (H1355 cells) [nM] | IC50 (HCC366 cells) [nM] | IC50 (H1437 cells) [nM] | IC50 (H2086 cells) [nM] | IC50 (H2085 cells) [nM] | IC50 (HCC1500 cells) [nM] | IC50 (HCC1806 cells) [nM] | IC50 (MCF-7 cells) [nM] | IC50 (HCC1954 cells) [nM] | IC50 (MCF-10 cells) [nM] | IC50 [1] [nM] | IC50 (SKMEL5 melanoma cells) [nM] | IC50 (M14 melanoma cells) [nM] | further results
C/C=C1\NC(=O)[C@H]2CSSCC/C=C/[C@H](CC(=O)N[C@H](C(C)C)C(=O)N2)OC(=O)[C@H](C(C)C)NC1=O [Depsipeptide, depsipeptide] | 6.4 | 0.9 | 1.1 | 5.3 | 4 | 37.1 | 1.2 | 1.8 | 3.1 | 0.5 | 3.8 | 6.9 | 1.5 | 1.8 | 4.2 | 1.5 | 2.4 | 1.3 | 1.5 | 2.4 | surviving population (MCF-7 cells; MCF7 cells): 30–40%; IC50 (MALME3M melanoma cells): 0.7 nM; IC50 (SKMEL2 melanoma cells): 0.4 nM; IC50 (SKMEL28 melanoma cells): 0.8 nM; IC50 [2]: 1.8 nM; IC50 [3]: 5.5 nM; IC50 [4]: 1.5 nM; IC50 [5]: 2.7 nM; IC50 [6]: 2.5 nM; IC50 [7]: 1.3 nM; IC50 [8]: 4.2 nM; IC50 (Melanocytes): 0.9 nM; inhibition of total HDAC activity in cell extracts treated in vitro ([9]; 20 nM): partly inhibited; global level of histone 3 acetylation ([10]; 25 nM): globally increased
CC(/C=C/C(=O)NO)=C\[C@@H](C)C(=O)c1ccc(N(C)C)cc1 [TSA, trichostatin A] | 7.9 | 38.3 | 40 | 41 | 55 | 63.7 | 93.5 | 107 | 147 | 191 | 275 | 390 | 29 | 41 | 90 | 91 | 96 | 124 | 66 | 98 | IC50 (MALME3M melanoma cells): 240 nM; IC50 (SKMEL2 melanoma cells): 336 nM; IC50 (SKMEL28 melanoma cells): 400 nM; IC50 [2]: 68 nM; IC50 [3]: 188 nM; IC50 [4]: 220 nM; IC50 [5]: 81 nM; IC50 [6]: 295 nM; IC50 [7]: 346 nM; IC50 [8]: 23 nM; IC50 (Melanocytes): 284 nM; inhibition of total HDAC activity in cell extracts treated in vitro ([9]; 150 nM): blocked; global level of histone 3 acetylation ([10]; 200 nM): globally increased

— PMC3251870 (British Journal of Cancer, 2011)
